Measured values published in patent US4100346A, “Certain 7(o-amino-methyl- or methylaminomethylphenyl- or cyclohexadienyl- or thienylacetamide)-3[1-carboxymethyl-(or ethyl- or propyl-)-tetrazol-5-ylthiomethyl]-3-cephem-4-carboxylic acids” (Bristol-Myers Company, priority 1976, dated 1978).
Values after ≈ are worked out from the molar mass of the structure shown. Like-named read-outs stand apart in the source and are kept apart here.

Columns and labels:
Enterobacter cloacae [1] = experiment: Effect of inoculum size on susceptibility of Enterobacteriaceae
Citrobacter sp. = experiment: Growth inhibitory activity, antibiotic dilution technique
Escherichia coli [2] = experiment: Effect of inoculum size on susceptibility of Enterobacteriaceae
Staphylococcus Aureus = experiment: Effect of inoculum size on susceptibility of Staphylococcus aureus; type: cell-based; conditions: for MIC: Staphylococcus aureus, geometric means, read-out: Minimum inhibitory concentration
Escherichia coli [3] = experiment: Minimum growth inhibitory and bactericidal concentrations for Enterobacteriaceae; type: cell-based; conditions: for MBC: read-out: MBC, minimum bactericidal concentration; for MIC: read-out: MIC, Minimum growth inhibitory concentration
Source text: (§1) Miscellaneous. Methods for determining bactericidal activity and susceptibility to cell-free β-lactamase were those previously used; Leitner et al., BL-S640, A Cephalosporin With a Broad Spectrum of Antibacterial Activity: Properties in vitro, Antimicrob. Agents Chemother. 7:298-305 (1975).
(§2) *MIC, Minimum growth inhibitory concentration; MBC, minimum bactericidal
(§3) concentration; expressed as micrograms per milliliter. The inoculum was […]

Enterobacter cloacae [4] = experiment: as above; type: cell-based; conditions: for MBC: read-out: MBC, minimum bactericidal concentration; for MIC: read-out: MIC, Minimum growth inhibitory concentration
Source text: as §1, §2, §3

Klebsiella pneumoniae [5] = experiment: as above; type: cell-based; conditions: for MBC: read-out: MBC, minimum bactericidal concentration; for MIC: read-out: MIC, Minimum growth inhibitory concentration
Source text: as §1, §2, §3

Edwardsiella tarda = experiment: Growth inhibitory activity, antibiotic dilution technique; conditions: read-out: Minimum inhibitory concentration
Arizona hinshawii = experiment: as above; conditions: Salmonella enterica, read-out: Minimum inhibitory concentration
Erwinia sp. = experiment: as above; conditions: read-out: Minimum inhibitory concentration
[6] = Recovery in urine after intramuscular injection; conditions: rat, im, 10 mg/kg
Bacteroides Fragilis = experiment: Growth inhibitory activity, antibiotic dilution technique (obligate anaerobes); type: cell-based; conditions: 3 strains, geometric mean when applicable, read-out: Minimum inhibitory concentration
Protocol: Antibiotic spectrum. […] Procedures were as follows:
c. Obligate anaerobes. The assay was performed on solid medium, consisting of Brain Heart Infusion Broth (BBL) supplemented with 5% defibrinated sheep blood and 1% Ionagar (Colab). […] The plates were incubated at 37° C. for 48 hours under the oxygen-free conditions attained with a Gas-Pak (BBL) Brewer jar system.

Serratia marcescens = experiment: Growth inhibitory activity, antibiotic dilution technique; conditions: read-out: Minimum inhibitory concentration
Klebsiella pneumoniae [7] = experiment: Effect of inoculum size on susceptibility of Enterobacteriaceae
[8] = Escherichia coli strain 1, inoculum 10^4 cells
[9] = Escherichia coli strain 2, inoculum 10^4 cells
[10] = Escherichia coli strain 3, inoculum 10^4 cells
[11] = Escherichia coli strain 4, inoculum 10^4 cells
[12] = Escherichia coli strain 5, inoculum 10^4 cells
[13] = Escherichia coli strain 6, inoculum 10^4 cells
[14] = Enterobacter cloacae strain 3, inoculum 10^4 cells
[15] = Enterobacter cloacae strain 4, inoculum 10^4 cells
[16] = Enterobacter cloacae strain 8, inoculum 10^4 cells
[17] = Klebsiella pneumoniae strain 1, inoculum 10^4 cells
[18] = Klebsiella pneumoniae strain 2, inoculum 10^4 cells
[19] = Klebsiella pneumoniae strain 3, inoculum 10^4 cells
[20] = Klebsiella pneumoniae strain 4, inoculum 10^4 cells
[21] = Klebsiella pneumoniae strain 5, inoculum 10^4 cells
[22] = Klebsiella pneumoniae strain 6, inoculum 10^4 cells

Cc1nnc(SCC2=C(C(=O)O)N3C(=O)[C@@H](NC(=O)Cn4cnnn4)[C@H]3SC2)s1 [Cefazolin]
MIC (Enterobacter cloacae [1]; read-out: Minimum Inhibitory Concentration, Enterobacter cloacae strain 1, A, Inoculum of 10^2 organisms): 2 µg/mL (≈ 4.4 µM)
MIC (Enterobacter cloacae [1]; read-out: Minimum Inhibitory Concentration, Enterobacter cloacae strain 1, B, Inoculum of 10^6 organisms): > 250 µg/mL
MIC (Enterobacter cloacae [1]; read-out: Minimum Inhibitory Concentration, Enterobacter cloacae strain 2, A, Inoculum of 10^2 organisms): 32 µg/mL (≈ 70.4 µM)
MIC (Enterobacter cloacae [1]; read-out: Minimum Inhibitory Concentration, Enterobacter cloacae strain 2, B, Inoculum of 10^6 organisms): > 250 µg/mL
MIC (Enterobacter cloacae [1]; read-out: Minimum Inhibitory Concentration, Enterobacter cloacae strain 3, A, Inoculum of 10^2 organisms): 8 µg/mL (≈ 17.6 µM)
MIC (Enterobacter cloacae [1]; read-out: Minimum Inhibitory Concentration, Enterobacter cloacae strain 3, B, Inoculum of 10^6 organisms): 250 µg/mL (≈ 550 µM)
MIC (Enterobacter cloacae [1]; read-out: Minimum Inhibitory Concentration, Enterobacter cloacae strain 4, A, Inoculum of 10^2 organisms): 63 µg/mL (≈ 139 µM)
MIC (Enterobacter cloacae [1]; read-out: Minimum Inhibitory Concentration, Enterobacter cloacae strain 4, B, Inoculum of 10^6 organisms): > 250 µg/mL
MIC (Enterobacter cloacae [1]; read-out: Minimum Inhibitory Concentration, Enterobacter cloacae strain 5, A, Inoculum of 10^2 organisms): 8 µg/mL (≈ 17.6 µM)
MIC (Enterobacter cloacae [1]; read-out: Minimum Inhibitory Concentration, Enterobacter cloacae strain 5, B, Inoculum of 10^6 organisms): > 250 µg/mL
MIC (Citrobacter sp.; read-out: Minimum inhibitory concentration): 75 µg/mL (≈ 165 µM)
MIC (Citrobacter sp.; read-out: Minimum inhibitory concentration, Citrobacter sp., 1 strain): > 125 µg/mL
MIC (Escherichia coli [2]; read-out: Minimum Inhibitory Concentration, Escherichia coli strain 1, A, Inoculum of 10^2 organisms): 1 µg/mL (≈ 2.2 µM)
MIC (Escherichia coli [2]; read-out: Minimum Inhibitory Concentration, Escherichia coli strain 1, B, Inoculum of 10^6 organisms): 4 µg/mL (≈ 8.8 µM)
MIC (Escherichia coli [2]; read-out: Minimum Inhibitory Concentration, Escherichia coli strain 2, A, Inoculum of 10^2 organisms): 2 µg/mL (≈ 4.4 µM)
MIC (Escherichia coli [2]; read-out: Minimum Inhibitory Concentration, Escherichia coli strain 2, B, Inoculum of 10^6 organisms): 16 µg/mL (≈ 35.2 µM)
MIC (Escherichia coli [2]; read-out: Minimum Inhibitory Concentration, Escherichia coli strain 3, A, Inoculum of 10^2 organisms): 1 µg/mL (≈ 2.2 µM)
MIC (Escherichia coli [2]; read-out: Minimum Inhibitory Concentration, Escherichia coli strain 3, B, Inoculum of 10^6 organisms): 2 µg/mL (≈ 4.4 µM)
MIC (Escherichia coli [2]; read-out: Minimum Inhibitory Concentration, Escherichia coli strain 4, A, Inoculum of 10^2 organisms): 1 µg/mL (≈ 2.2 µM)
MIC (Escherichia coli [2]; read-out: Minimum Inhibitory Concentration, Escherichia coli strain 4, B, Inoculum of 10^6 organisms): 2 µg/mL (≈ 4.4 µM)
MIC (Escherichia coli [2]; read-out: Minimum Inhibitory Concentration, Escherichia coli strain 5, A, Inoculum of 10^2 organisms): 1 µg/mL (≈ 2.2 µM)
MIC (Escherichia coli [2]; read-out: Minimum Inhibitory Concentration, Escherichia coli strain 5, B, Inoculum of 10^6 organisms): 2 µg/mL (≈ 4.4 µM)
MIC (Escherichia coli [2]; read-out: Minimum Inhibitory Concentration, Escherichia coli strain 6, A, Inoculum of 10^2 organisms): 1 µg/mL (≈ 2.2 µM)
MIC (Escherichia coli [2]; read-out: Minimum Inhibitory Concentration, Escherichia coli strain 6, B, Inoculum of 10^6 organisms): 2 µg/mL (≈ 4.4 µM)
MIC (Escherichia coli [2]; read-out: Minimum Inhibitory Concentration, Escherichia coli strain 7, A, Inoculum of 10^2 organisms): 1 µg/mL (≈ 2.2 µM)
MIC (Escherichia coli [2]; read-out: Minimum Inhibitory Concentration, Escherichia coli strain 7, B, Inoculum of 10^6 organisms): 2 µg/mL (≈ 4.4 µM)
MIC (Staphylococcus Aureus; Lacking penicillinase, 3 strains, A, Inoculum of 10^2 organisms): 0.13 µg/mL (≈ 0.286 µM)
MIC (Staphylococcus Aureus; Lacking penicillinase, 3 strains, B, inoculum of 10^6 organisms): 0.2 µg/mL (≈ 0.44 µM)
MIC (Staphylococcus Aureus; Penicillinase producer, 26 strains, A, Inoculum of 10^2 organisms): 0.22 µg/mL (≈ 0.484 µM)
MIC (Staphylococcus Aureus; Penicillinase producer, 26 strains, B, inoculum of 10^6 organisms): 0.79 µg/mL (≈ 1.74 µM)
effect of cell concentration on growth inhibitory activity (Staphylococcus Aureus; penicillinase-producing strains): moderately
MBC (Escherichia coli [3]; [8]): 2 µg/mL (≈ 4.4 µM)
MIC (Escherichia coli [3]; [8]): 2 µg/mL (≈ 4.4 µM)
MBC (Escherichia coli [3]; [9]): 16 µg/mL (≈ 35.2 µM)
MIC (Escherichia coli [3]; [9]): 8 µg/mL (≈ 17.6 µM)
MBC (Escherichia coli [3]; [10]): 2 µg/mL (≈ 4.4 µM)
MIC (Escherichia coli [3]; [10]): 2 µg/mL (≈ 4.4 µM)
MBC (Escherichia coli [3]; [11]): 2 µg/mL (≈ 4.4 µM)
MIC (Escherichia coli [3]; [11]): 1 µg/mL (≈ 2.2 µM)
MBC (Escherichia coli [3]; [12]): 2 µg/mL (≈ 4.4 µM)
MIC (Escherichia coli [3]; [12]): 2 µg/mL (≈ 4.4 µM)
MBC (Escherichia coli [3]; [13]): 4 µg/mL (≈ 8.8 µM)
MIC (Escherichia coli [3]; [13]): 2 µg/mL (≈ 4.4 µM)
MBC (Enterobacter cloacae [4]; [14]): 8 µg/mL (≈ 17.6 µM)
MIC (Enterobacter cloacae [4]; [14]): 4 µg/mL (≈ 8.8 µM)
MBC (Enterobacter cloacae [4]; [15]): > 250 µg/mL
MIC (Enterobacter cloacae [4]; [15]): 250 µg/mL (≈ 550 µM)
MBC (Enterobacter cloacae [4]; [16]): > 250 µg/mL
MIC (Enterobacter cloacae [4]; [16]): > 250 µg/mL
MBC (Klebsiella pneumoniae [5]; [17]): 2 µg/mL (≈ 4.4 µM)
MIC (Klebsiella pneumoniae [5]; [17]): 2 µg/mL (≈ 4.4 µM)
MBC (Klebsiella pneumoniae [5]; [18]): 2 µg/mL (≈ 4.4 µM)
MIC (Klebsiella pneumoniae [5]; [18]): 1 µg/mL (≈ 2.2 µM)
MBC (Klebsiella pneumoniae [5]; [19]): 2 µg/mL (≈ 4.4 µM)
MIC (Klebsiella pneumoniae [5]; [19]): 1 µg/mL (≈ 2.2 µM)
MBC (Klebsiella pneumoniae [5]; [20]): 4 µg/mL (≈ 8.8 µM)
MIC (Klebsiella pneumoniae [5]; [20]): 2 µg/mL (≈ 4.4 µM)
MBC (Klebsiella pneumoniae [5]; [21]): 2 µg/mL (≈ 4.4 µM)
MIC (Klebsiella pneumoniae [5]; [21]): 2 µg/mL (≈ 4.4 µM)
MBC (Klebsiella pneumoniae [5]; [22]): 4 µg/mL (≈ 8.8 µM)
MIC (Klebsiella pneumoniae [5]; [22]): 2 µg/mL (≈ 4.4 µM)
MIC (Edwardsiella tarda): 0.71 µg/mL (≈ 1.56 µM)
MIC (Arizona hinshawii): 1 µg/mL (≈ 2.2 µM)
MIC (Erwinia sp.): 1.5 µg/mL (≈ 3.3 µM)
dose excreted at 24 h [6]: 75%
MIC (Bacteroides Fragilis): 50 µg/mL (≈ 110 µM)
MIC (Serratia marcescens): > 125 µg/mL
MIC (Klebsiella pneumoniae [7]; read-out: Minimum Inhibitory Concentration, Klebsiella pneumoniae strain 1, A, Inoculum of 10^2 organisms): 1 µg/mL (≈ 2.2 µM)
MIC (Klebsiella pneumoniae [7]; read-out: Minimum Inhibitory Concentration, Klebsiella pneumoniae strain 1, B, Inoculum of 10^6 organisms): 2 µg/mL (≈ 4.4 µM)
MIC (Klebsiella pneumoniae [7]; read-out: Minimum Inhibitory Concentration, Klebsiella pneumoniae strain 2, A, Inoculum of 10^2 organisms): 1 µg/mL (≈ 2.2 µM)
MIC (Klebsiella pneumoniae [7]; read-out: Minimum Inhibitory Concentration, Klebsiella pneumoniae strain 2, B, Inoculum of 10^6 organisms): 4 µg/mL (≈ 8.8 µM)
MIC (Klebsiella pneumoniae [7]; read-out: Minimum Inhibitory Concentration, Klebsiella pneumoniae strain 3, A, Inoculum of 10^2 organisms): 1 µg/mL (≈ 2.2 µM)
MIC (Klebsiella pneumoniae [7]; read-out: Minimum Inhibitory Concentration, Klebsiella pneumoniae strain 3, B, Inoculum of 10^6 organisms): 4 µg/mL (≈ 8.8 µM)
MIC (Klebsiella pneumoniae [7]; read-out: Minimum Inhibitory Concentration, Klebsiella pneumoniae strain 4, A, Inoculum of 10^2 organisms): 1 µg/mL (≈ 2.2 µM)
MIC (Klebsiella pneumoniae [7]; read-out: Minimum Inhibitory Concentration, Klebsiella pneumoniae strain 4, B, Inoculum of 10^6 organisms): 4 µg/mL (≈ 8.8 µM)
MIC (Klebsiella pneumoniae [7]; read-out: Minimum Inhibitory Concentration, Klebsiella pneumoniae strain 5, A, Inoculum of 10^2 organisms): 1 µg/mL (≈ 2.2 µM)
MIC (Klebsiella pneumoniae [7]; read-out: Minimum Inhibitory Concentration, Klebsiella pneumoniae strain 5, B, Inoculum of 10^6 organisms): 4 µg/mL (≈ 8.8 µM)
MIC (Klebsiella pneumoniae [7]; read-out: Minimum Inhibitory Concentration, Klebsiella pneumoniae strain 6, A, Inoculum of 10^2 organisms): 1 µg/mL (≈ 2.2 µM)
MIC (Klebsiella pneumoniae [7]; read-out: Minimum Inhibitory Concentration, Klebsiella pneumoniae strain 6, B, Inoculum of 10^6 organisms): 32 µg/mL (≈ 70.4 µM)
